In publication PMC11574108, “4-Furanylvinylquinoline derivative as a new scaffold for the design of oxidative stress initiator and glucose transporter inhibitor drugs” (Scientific Reports, 2024):

Columns and labels:
[1] = test system: AsPC-1; experiment: Monolayer antiproliferative MTS assay; format: cell-based, human; settings: 2D monolayer
Procedure: (§1) The cells were seeded in 96-well plates (Nunc) with 5,000 or 4,000 cells per well for the cancer cells and NHDF, respectively, and incubated under standard conditions at 37 °C overnight. The culture media were then changed for freshly prepared solutions of the tested compounds in various concentrations. After 72-h incubation the antiproliferative assay was carried out as follows: the solutions of the compounds were changed in each well to 100 µL DMEM without phenol red and 20 µL of CellTiter 96 AQueous One Solution-MTS (Promega). The plates were incubated for 1 h at 37 °C, and the absorbance was then measured at 490 nm using a multi-plate reader (Synergy 4, BioTek). The experiment for each sample was repeated at least three times. The results are presented as the half-maximal inhibitory concentration (IC50) values, which were estimated in comparison to untreated cells (control) and calculated using GraphPad Prism v.8.0 (USA).
(§2) However, the antiproliferative activity of derivative 13 with furan a ring was surprising. […] For this purpose, we selected two pancreatic cancer cell lines: AsPC-1, which is characterised by a deletion of the p53 protein[20] and PANC-1, which carries an R273H mutation. This mutation also occurred in the glioblastoma U-251 cell line[22],[23]. An additional non-adherent line that carries the TP53 mutation that results in the absence of p53 is the K562 leukemic cell line[24]. […] Moreover, 13 was selective toward […], as indicated by its SI values (3.35–9.41). Among all of the tested cell lines, the highest activity of the compound was found against the HCT 116 cells with the wild-type p53 protein (0.069 µM). […] The p53 protein also interacts with the metabolic pathways that are associated with glucose transport[25] as well as small molecules. In light of the above-mentioned facts, we also determined the cytotoxicity of the GLUT inhibitor BAY-876, which is based on a quinoline scaffold. […] Furthermore, BAY-876 was also toxic to normal cells.

[2] = test system: PANC-1; experiment: Monolayer antiproliferative MTS assay; format: cell-based, human; settings: 2D monolayer
Procedure: as §1, §2

[3] = test system: U-251; experiment: Monolayer antiproliferative MTS assay; format: cell-based, human
Source text: (§3) The human colon carcinoma cell line HCT 116 with wild-type p53 (p53^+/+) and the human glioblastoma cell line U-251 were obtained from ATCC, while the HCT 116 with a p53 deletion (p53^−/−) was kindly provided by Prof. M. Rusin from the Maria Sklodowska-Curie Memorial Cancer Center and Institute of Oncology in Gliwice, Poland. The human chronic myelogenous leukaemia cell line K562 and the normal human cell dermal fibroblast cell line NHDF were purchased from Sigma-Aldrich and PromoCell, respectively. Both the HCT 116 and U-251 cell lines were cultured in Dulbecco’s modified Eagle’s medium (DMEM) supplemented with 10% inactivated foetal bovine serum (FBS). The DMEM for the NHDF contained 15% non-inactivated FBS. K562 cells were cultured in RPMI medium completed by 10% inactivated FBS. Additionally, the media were supplemented with antibiotics (streptomycin and penicillin – 1% v/v; Sigma-Aldrich). The cell culture was conducted in 75 cm^2 flasks (Nunc) under standard conditions (37 °C, 5% CO2 humidified atmosphere). Furthermore, the cell lines were frequently tested for mycoplasma using the qRT-PCR technique with specific Mycoplasma primers to confirm the lack of contamination.
as §1, §2

[4] = test system: NHDF; experiment: Monolayer MTS cytotoxicity against normal cells; format: cell-based; settings: NHDF, normal human dermal fibroblasts, 72-h incubation
Source text: as §3
as §1, with “times.” for “times. The results are presented as the half-maximal inhibitory concentration (IC50) values, which were estimated in comparison to untreated cells (control) and calculated using GraphPad Prism v.8.0 (USA).”
(§4) Additionally, the compounds were also tested for their cytotoxicity against normal cells – human dermal fibroblasts (NHDF).

[5] = test system: GLUT-1; experiment: qRT-PCR, GLUT-1 mRNA expression; format: cell-based, human; settings: HCT 116 p53-/-, 24 and 48 h
Procedure: The cells were seeded in 35 mm Petri dishes at a density of 500,000 cells and incubated at 37 °C for 24 h. The total RNA was isolated after incubation with solutions of 13 (0.5 µM and 1.0 µM) for 24 h and 48 h, respectively. The isolation from the samples was carried out according to a TRIzol™ Reagent protocol (Thermo Fisher Scientific). Synthesis of cDNA was performed with 2 µg of total RNA using a GoScript™ Reverse Transcriptase kit (Promega) with Oligo(dT)23 Primers. Real-Time PCR was carried out using a CFX96 Touch™ Real-Time PCR Detection System (Bio-Rad) in 10 µL reaction volume. Each sample contained SsoAdvanced™ Universal SYBR Green Supermix (Bio Rad), a specific primer pair mix (0.5 µM each), and 1 µL of cDNA. […] The obtained data were analysed based on a comparison of the expression of the target genes and normalized to a reference gene (GAPDH) using the Livak-Schmittgen (2^−ΔΔCT) method. […]
To verify the effect of derivative 13 on glucose transporters at the mRNA level, the expression of the genes encoding the best-characterised glucose transporters in cells was quantified in real-time. In addition to GLUT-1, the effect of the tested derivative on changes in the expression of GLUT-3 and GLUT-4 was also evaluated (Fig. 8). […]

[6] = test system: HCT 116 p53-/-; experiment: Monolayer antiproliferative MTS assay; format: cell-based, human; settings: 2D monolayer
Source text: as §3
as §1, with “times.” for “times. The results are presented as the half-maximal inhibitory concentration (IC50) values, which were estimated in comparison to untreated cells (control) and calculated using GraphPad Prism v.8.0 (USA).”
as §4

[7] = test system: HCT 116 p53+/+; experiment: Monolayer antiproliferative MTS assay; format: cell-based, human; settings: 2D monolayer
Source text: as §3
as §1, with “times.” for “times. The results are presented as the half-maximal inhibitory concentration (IC50) values, which were estimated in comparison to untreated cells (control) and calculated using GraphPad Prism v.8.0 (USA).”
as §4

[8] = Homo sapiens, HCT-116, 72 h, MTS, 72-h incubation

IC50 ([1]; Homo sapiens, ASPC1, 72 h, MTS, 72-h incubation): 160 ± 10 nM
IC50 ([2]; Homo sapiens, PANC-1, 72 h, MTS, 72-h incubation): 35 ± 4 nM
IC50 ([3]; Homo sapiens, U-251, 72 h, 2D monolayer, MTS, 72-h incubation): > 25000 nM
IC50 [6, 8]: 10800 ± 810 nM
IC50 [7, 8]: 1710 ± 270 nM
SMILES: Cc1c(NC(=O)c2cc(C(N)=O)nc3cc(F)ccc23)c(C(F)(F)F)nn1Cc1ccc(C#N)cc1 [BAY-876]
SI (selectivity index) AsPC-1 ([1]; relative to NHDF): 27.06
SI (selectivity index) PANC-1 ([2]; relative to NHDF): 123.71
SI (selectivity index) U-251 ([3]; 2D monolayer, relative to NHDF): < 0.17
activity in U-251 ([3]; at 25 µM): not active
IC50 [4]: 4330 ± 480 nM
GLUT-1 mRNA level vs control [5]: increased its expression
SI (selectivity index) HCT 116 p53-/- ([6]; relative to NHDF): 0.40
SI (selectivity index) HCT 116 p53+/+ ([7]; relative to NHDF): 2.53
